Legend:
Experiment in all cases: CTG-3D luminescence at 96 h relative to day-0 seeding control (ratio to day 0); higher = more growth / less cytotoxicity; PDxO 3D drug screen, 96 h, CTG-3D normalised to day-0 seeding control.
HCI-001 = system: HCI-001 (organoid from a triple-negative breast cancer xenograft)
HCI-003.E2 = system: HCI-003.E2 (organoid from an ER-positive breast cancer xenograft)
HCI-027 = system: HCI-027 (organoid from a triple-negative breast cancer xenograft)
HCI-012 = system: HCI-012 (organoid from a breast cancer xenograft)
HCI-024 = system: HCI-024 (organoid from a breast cancer xenograft)

CC[C@H](NC(=O)[C@H](C)NC)C(=O)N1C[C@@H](O)C[C@H]1Cc1c(-c2[nH]c3cc(F)ccc3c2C[C@@H]2C[C@H](O)CN2C(=O)[C@H](CC)NC(=O)[C@H](C)NC)[nH]c2cc(F)ccc12 [birinapant]
CTG-3D luminescence at 96 h
Conditions	12.5 pM	0.00025 µM	0.005 µM	0.1 µM	1 µM	10 µM	100 µM	625 fM
HCI-001, days in culture: 240	1.73	1.11	0.766	1.19	1.35	0.911	0.0991	1.19
HCI-001, days in culture: 260	2.4	0.757	1.95	1.48	1.34	1.44	0.312	1.51
HCI-001, days in culture: 269	1.5	1.67	1.54	1.87	1.68	2.3	-0.0177	1.65
HCI-001, days in culture: 327	1.48	1.44	1.63	1.67	1.34	1.26	0.695	1.57
HCI-001, days in culture: 346	1.48	1.48	1.12	1.08	1.35	1.42	1.37	1.14
HCI-001, days in culture: 364	1.38	1.05	1.4	1.27	1.07	1.32	1.04	1.5
HCI-012, days in culture: 143	1.9	1.6	0.979	1.05	0.841	1.03	0.0063	1.91
HCI-012, days in culture: 162	2.25	2.01	0.325	0.156	0.152	0.249	0.00568	2.83
HCI-012, days in culture: 201	2.65	2.24	1.46	0.262	0.102	0.277	0.0538	1.77
HCI-024, days in culture: 105	1.4	1.17	0.375	0.175	0.139	0.177	0.0272	1.84
HCI-024, days in culture: 122	1.7	1.71	0.726	0.194	0.134	0.237	0.0303	2.58
HCI-024, days in culture: 163	1.8	1.36	0.525	0.315	0.255	0.23	0.0734	2.09
HCI-027, days in culture: 176	1.24	1.19	1.69	1.22	1.62	1.08	0.00679	1.18
HCI-027, days in culture: 194	1.58	1.02	0.983	0.99	1.14	1.31	0.129	1.53
HCI-027, days in culture: 201	1.64	1.19	1.14	0.985	0.933	1.13	0.11	1.76

HCI-003.E2
Conditions	CTG-3D luminescence at 96 h
12.5 pM	2.21
0.00025 µM	2.35
0.005 µM	2.12
0.1 µM	2.07
1 µM	1.98
10 µM	2.07
100 µM	1.08
625 fM	2.08

— the supplement of paper PMC8882468
